Assay [1] concerns GIPR messenger RNA levels in human pancreatic β-cells EndoC-βH1. The assay can be described thus: GIPR transcripts by RT-qPCR in pancreatic β-cells EndoC-βH1 after KDM1A inhibition. Type of assay: cell-based. The procedure:
(§1) H295R cells were cultivated in DMEM/Ham's F-12 Medium supplemented with 2 mM Glutamine, 100 IU/mL Penicillin, 100 μg/mL Streptomycin, 10% Fetal Bovine Serum, 20 mM HEPES, and a mixture of Insulin (1 μM), Transferrin (5.8 mg/ml) and Selenium (60 nM). Human pancreatic β-cells EndoC-βH1 have also been used. They are cultivated as described in Ravassard P. et al^38.
(§2) Cells were incubated up to 10 days with 0.5 μM GSK-LSD1 an irreversible inhibitor of KDM1A (Sigma-Aldrich).
(§3) Transfection of siRNAs protocol was performed as follow. Briefly, H295R cells were cultivated in serum free Optimem medium (Life Technologies) for 2 hours, then incubated for 6 h with Lipofectamine RNAiMAX (2 μL/well) and 100 nM siRNA targeting KDM1A or Scrambled siRNA (Horizon). Two iterative transfections were performed at 1 and 3 days after seeding. Expression level of the studied gene was determined using reverse transcription quantitative polymerase chain reaction (RT-qPCR).
(§4) RNA extraction from cell cultures and tissue protocol and RT-qPCR protocol were as follows: DNA was extracted from frozen adrenal samples using the phenol-chloroform-isoamyl alcohol extraction method. DNA was extracted from Formalin-Fixed Paraffin-Embedded (FFPE) sample using NucleoSpin DNA FFPE XS kit (Macherey-Nagel) or from blood leucocytes using either an automated QIAsymphony platform (Qiagen) or the Flexigene DNA Kit (Qiagen). Total RNA was extracted from tissues or cells using TRIzol reagent according to the manufacturer's instructions. After DNAse I treatment (New England Biolabs), 1 μg of total RNA was reverse transcribed using the High-Capacity cDNA reverse transcription kit (Life Technologies). Samples were analyzed by RT-qPCR using the Power SYBR® Green PCR Master Mix (Life Technologies) or the TaqMan Gene Expression Assays (Life Technologies, ref. 4331182 and 4448489) and were run on a QS6 Real-Time PCR System (Life Technologies). […] Relative expression of the gene of interest was expressed as a ratio of attomoles to attomoles of housekeeper genes.
For orientation: Quantitative PCR measures a nucleic acid by following its amplification.

In assay [2] the test system is GIPR protein in H295R cells. As to the kind of experiment: GIPR protein by immunofluorescence and automated High-throughput Microscopy in H295R cells. Type of assay: cell-based, human. The procedure: as §1, §2, §3
Cells were grown on a 24 well plates containing glass coverslips (14-mm diameter). After 24 h, siRNA targeting KDM1A or Scramble siRNA (100 nM) were transfected as described above. Briefly, cells were fixed with 4% paraformaldehyde and permeabilized 10 min with a 0.2% solution of Triton X100 diluted in PBS. […]
Sequential images (20×-0.40 NA lens) were acquired for each channel with the automated ArrayScan VTI imaging and analyzing platform (Thermo Fisher Scientific). The TargetActivation Algorithm (v.4) was used to detect and quantify the GIPR fluorescence as following. DAPI fluorescence was used to find the focus and was sequentially acquired with GIPR fluorescence in order to give separate image files. […] In order to quantify the amount of GIPR fluorescence (channel 2) present in the cytoplasm of the primary selected object, this nuclear mask was dilated to cover the cytoplasmic region. […] The cytoplasmic mask was lastly used to detect, select and quantify the average fluorescence of GIPR in the final population of transfected cells (n>40,000). […]

Assay [3] concerns GIPR expression in H295R cells. The assay can be described thus: GIPR messenger RNA by RT-qPCR in H295R cells after KDM1A inhibition. The note with it: for GIPR messenger RNA level (RT-qPCR): GSK-LSD1 at 0.5 μM. Type of assay: cell-based, human. The procedure:
as §1, §2, §3, §4

Here are results for one compound from patent publication US20240360510A1, “DETECTION OF KDM1A LOSS OF ACTIVITY FOR DIAGNOSING ENDOCRINE DISORDERS” (UNIVERSITE PARIS-SACLAY, priority 2021, published 2024).

For `c1ccc([C@@H]2C[C@H]2NC2CCNCC2)cc1` [GSK-LSD1], the “GIPR transcripts (RT-qPCR)” value is listed as “significant increase in GIPR transcripts” in assay [1] (KDM1A siRNA and GSK-LSD1, 3 days of treatment, p=0.0113); “significant increase in GIPR transcripts” in assay [1] (KDM1A siRNA and GSK-LSD1, 7 days of treatment, p=0.0027). For the same compound, the “GIPR expression (GIPR transcripts, RT-qPCR)” value in assay [1] (KDM1A silencing and concomitant GSK-LSD1, time not given) is reported as “increased GIPR expression”. In addition, the “GIPR protein expression in the cytoplasm (automated High-throughput Microscopy)” value in assay [2] (H295R cells transfected (KDM1A siRNA) and treated (GSK-LSD1), seven days, p<0.0001, analyzed cells>40 000) is listed as “increase in protein expression”. The “GIPR expression observed by immunofluorescence” value in assay [2] (H295R cells, KDM1A siRNA transfection and concomitant pharmacological inhibition (GSK-LSD1) for seven days) is given as “significant GIPR expression”. Also, the “expression of GIPR protein (automated High-throughput Microscopy)” value in assay [2] (H295R cells, compared to untreated cells, analyzed cells>40 000, p<0.001) is “significant increased expression of GIPR protein”. For the same compound, the “GIPR messenger RNA level (RT-qPCR)” value in assay [3] (seven days, p=0.0082) is “significant increase of GIPR expression”; in assay [3] (three days, p=0.0069), “significant increase of GIPR expression”. For the same compound, the “GIPR expression, quantified by RT-qPCR” value in assay [3] (treatment with GSK-LSD1, time not given) was “increased GIPR expression”.
